For one experiment, the target named is Galectin-1 (Homo sapiens, UniProt P09382). As to the kind of experiment: Fluorescence anisotropy assay, inhibition of galectin / fluorescein tagged saccharide probe interaction. Format: binding. On the procedure:
(§1) The affinity of Example 1-28 for galectins were determined by a fluorescence anisotropy assay where the compound was used as an inhibitor of the interaction between galectin and a fluorescein tagged saccharide probe as described Sörme, P., Kahl-Knutsson, B., Huflejt, M., Nilsson, U. J., and Leffler H. (2004) Fluorescence polarization as an analytical tool to evaluate galectin-ligand interactions. Anal. Biochem. 334: 36-47, (Sörme et al., 2004) and Monovalent interactions of Galectin-1 By Salomonsson, Emma; Larumbe, Amaia; Tejler, Johan; Tullberg, Erik; Rydberg, Hanna; Sundin, Anders; Khabut, Areej; Frejd, Torbjorn; Lobsanov, Yuri D.; Rini, James M.; et al, From Biochemistry (2010), 49(44), 9518-9532, (Salomonsson et al., 2010).
Background: In fluorescence polarisation assays a small probe gives low polarisation when free and higher when bound to something large.

The next experiment has as its target Galectin-3 (Homo sapiens, UniProt P17931). The experiment is described as above. Format: binding. On the procedure: as §1

Galectin-3, sequence (P17931 whole entry): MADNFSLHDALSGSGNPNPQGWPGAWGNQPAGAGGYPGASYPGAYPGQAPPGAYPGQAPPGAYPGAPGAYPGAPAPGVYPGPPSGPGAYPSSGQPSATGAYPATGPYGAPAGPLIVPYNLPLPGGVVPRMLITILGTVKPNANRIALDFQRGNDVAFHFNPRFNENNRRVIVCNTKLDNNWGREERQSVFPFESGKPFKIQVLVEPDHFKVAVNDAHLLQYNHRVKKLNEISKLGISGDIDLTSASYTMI
Galectin-1, sequence (P09382 whole entry): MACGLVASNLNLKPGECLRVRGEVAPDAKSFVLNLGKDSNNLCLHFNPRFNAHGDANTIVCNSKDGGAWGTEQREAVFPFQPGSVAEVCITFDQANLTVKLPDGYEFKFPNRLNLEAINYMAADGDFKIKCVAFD

In the case of `CC(OC1C(n2cc(-c3cc(F)c(F)c(F)c3)nn2)[C@@H](O)C(CO)O[C@@H]1Sc1cncc(Br)c1)C(=O)O` (single isomer, unassigned; diastereomer 1) [Example 27], the results for the Kd on Galectin-1 and at Galectin-3 were 6500 nM and 15 nM, respectively.
Take `CC(OC1C(n2cc(-c3cc(F)c(F)c(F)c3)nn2)[C@@H](O)C(CO)O[C@@H]1Sc1cncc(Br)c1)C(=O)O` (single isomer, unassigned; diastereomer 2) [Example 28]: the Kd (as a rule, a measure of binding affinity in units of concentration) on Galectin-1 came out at 6400 nM; on Galectin-3 it was 6 nM.
The like results for `OCC1O[C@H](Sc2ccc(Cl)c(Cl)c2)C(OCc2nnn[nH]2)C(n2cc(-c3cc(F)c(Cl)c(F)c3)nn2)[C@H]1O` (stereo in doubt) [Example 13, 3,4-Dichlorphenyl 3-[4-(4-chloro-3,5-difluorophenyl)-1H-1,2,3-triazol-1-yl]-3-deoxy-2-O-[(1H-tetrazol-5-yl)methyl]-1-thio-α-D-galactopyranoside] were, in that order, 1400 nM and 64 nM.
The like results for `OCC1O[C@H](Sc2ccc(Cl)c(Cl)c2)C(OCc2nnn[nH]2)C(n2cc(-c3cc(F)c(F)c(F)c3)nn2)[C@H]1O` (stereo in doubt) [Example 14, 3,4-Dichlorphenyl 3-deoxy-3-[4-(3,4,5-trifluorophenyl)-1H-1,2,3-triazol-1-yl]-2-O-[(1H-tetrazol-5-yl)methyl]-1-thio-α-D-galactopyranoside] were, in that order, 1800 nM and 8 nM.
Compound `O=P(O)(O)O[C@@H]1[C@@H](n2cc(-c3cc(F)c(F)c(F)c3)nn2)[C@@H](O)[C@@H](CO)O[C@@H]1Sc1cncc(Br)c1` [Example 1, 5-Bromopyridin-3-yl 3-deoxy-3-[4-(3,4,5-trifluorophenyl)-1H-1,2,3-triazol-1-yl]-2-O-phospho-1-thio-α-D-galactopyranoside] had a Kd on Galectin-1 of 5400 nM.
With `O=S(=O)(O)O[C@@H]1[C@@H](n2cc(-c3cc(F)c(F)c(F)c3)nn2)[C@@H](O)[C@@H](CO)O[C@@H]1Sc1cncc(Br)c1` [Example 4, 5-Bromopyridin-3-yl 3-deoxy-3-[4-(3,4,5-trifluorophenyl)-1H-1,2,3-triazol-1-yl]-2-O-sulfo-1-thio-α-D-galactopyranside], the Kd on Galectin-1 amounted to 3150 nM; on Galectin-3, 3 nM.
For `O=C(O)CO[C@@H]1[C@@H](n2cc(-c3cc(F)c(F)c(F)c3)nn2)[C@@H](O)[C@@H](CO)O[C@@H]1Sc1ccc(Cl)c(Cl)c1` [Example 6, 3,4-Dichlorphenyl 2-O-carboxymethyl-3-deoxy-3-[4-(3,4,5-trifluorophenyl)-1H-1,2,3-triazol-1-yl]-1-thio-α-D-galactopyranoside], binding on Galectin-3 was put at a Kd of 17 nM.
On to `OC[C@H]1O[C@H](Sc2cncc(Br)c2)[C@H](OCc2cocn2)[C@@H](n2cc(-c3cc(F)c(F)c(F)c3)nn2)[C@H]1O` [Example 10, 5-Bromopyridin-3-yl 3-deoxy-3-[4-(3,4,5-trifluorophenyl)-1H-1,2,3-triazol-1-yl]-2-O-(oxazol-4-ylmethyl)-1-thio-α-D-galactopyranoside], for which the Kd stood at 9200 nM on Galectin-1 and 24 nM on Galectin-3.
The like results for `OC[C@H]1O[C@H](Sc2cncc(Br)c2)[C@H](OCc2cc(F)c(O)c(F)c2)[C@@H](n2cc(-c3cc(F)c(F)c(F)c3)nn2)[C@H]1O` [Example 11, 5-Bromopyridin-3-yl 3-deoxy-3-[4-(3,4,5-trifluorophenyl)-1H-1,2,3-triazol-1-yl]-2-O-(3,5-difluoro-4-hydroxybenzyl)-1-thio-α-D-galactopyranoside] were, in that order, 260 nM and 17 nM.
The like results for `OC[C@H]1O[C@H](Sc2cncc(Br)c2)[C@H](OCc2nnn[nH]2)[C@@H](n2cc(-c3cc(F)c(F)c(F)c3)nn2)[C@H]1O` [Example 12, 5-Bromopyridin-3-yl 3-deoxy-3-[4-(3,4,5-trifluorophenyl)-1H-1,2,3-triazol-1-yl]-2-O-[(1H-tetrazol-5-yl)methyl]-1-thio-α-D-galactopyranoside] were, in that order, 2400 nM and 16 nM.
The like results for `OC[C@H]1O[C@H](Sc2cncc(Br)c2)[C@H](OCc2ncc[nH]2)[C@@H](n2cc(-c3cc(F)c(F)c(F)c3)nn2)[C@H]1O` [Example 15, 5-Bromopyridin-3-yl 3-deoxy-3-[4-(3,4,5-trifluorophenyl)-1H-1,2,3-triazol-1-yl]-2-O-[(1H-imidazol-2-yl)methyl]-1-thio-α-D-galactopyranoside] were, in that order, 9500 nM and 7 nM.
For the compound `Cn1ccnc1CO[C@@H]1[C@@H](n2cc(-c3cc(F)c(F)c(F)c3)nn2)[C@@H](O)[C@@H](CO)O[C@@H]1Sc1cncc(Br)c1` [Example 16, 5-Bromopyridin-3-yl 3-deoxy-3-[4-(3,4,5-trifluorophenyl)-1H-1,2,3-triazol-1-yl]-2-O-[(1-methyl-1H-imidazol-2-yl)methyl]-1-thio-α-D-galactopyranoside], the Kd on Galectin-1 stood at 6400 nM; at Galectin-3, 57 nM.
`OC[C@H]1O[C@H](Sc2cncc(Br)c2)[C@H](OCc2ncco2)[C@@H](n2cc(-c3cc(F)c(F)c(F)c3)nn2)[C@H]1O` [Example 17, 5-Bromopyridin-3-yl 3-deoxy-3-[4-(3,4,5-trifluorophenyl)-1H-1,2,3-triazol-1-yl]-2-O-[(oxazol-2-yl)methyl]-1-thio-α-D-galactopyranoside]: the Kd is 2800 nM at Galectin-1 and 24 nM on Galectin-3.
For the compound `OC[C@H]1O[C@H](Sc2cncc(Br)c2)[C@H](OCc2cnco2)[C@@H](n2cc(-c3cc(F)c(F)c(F)c3)nn2)[C@H]1O` [Example 18, 5-Bromopyridin-3-yl 3-deoxy-3-[4-(3,4,5-trifluorophenyl)-1H-1,2,3-triazol-1-yl]-2-O-[(oxazol-5-yl)methyl]-1-thio-α-D-galactopyranoside], the Kd at Galectin-1 was determined as 14800 nM; at Galectin-3 it was 130 nM.
Consider `OC[C@H]1O[C@H](Sc2cncc(Br)c2)[C@H](OCc2ccon2)[C@@H](n2cc(-c3cc(F)c(F)c(F)c3)nn2)[C@H]1O` [Example 19, 5-Bromopyridin-3-yl 3-deoxy-3-[4-(3,4,5-trifluorophenyl)-1H-1,2,3-triazol-1-yl]-2-O-[(isoxazol-3-yl)methyl]-1-thio-α-D-galactopyranoside], for which the Kd on Galectin-1 stood at 2900 nM; at Galectin-3, 32 nM.
For `OCC1O[C@H](Sc2ccc(Cl)c(Cl)c2)C(OCc2cocn2)C(n2cc(-c3cc(F)c(Cl)c(F)c3)nn2)[C@H]1O` (stereo partly drawn) [Example 20, 3,4-Dichlorphenyl 3-[4-(4-chloro-3,5-difluorophenyl)-1H-1,2,3-triazol-1-yl]-3-deoxy-2-O-[(oxazol-4-yl)methyl]-1-thio-α-D-galactopyranoside], the Kd on Galectin-1 worked out at 29700 nM; at Galectin-3 it was 87 nM.
The like results for `OC[C@H]1O[C@H](Sc2cncc(Br)c2)[C@H](OCc2cscn2)[C@@H](n2cc(-c3cc(F)c(F)c(F)c3)nn2)[C@H]1O` [Example 21, 5-Bromopyridin-3-yl 3-deoxy-3-[4-(3,4,5-trifluorophenyl)-1H-1,2,3-triazol-1-yl]-2-O-[(thiazol-4-yl)methyl]-1-thio-α-D-galactopyranoside] were, in that order, 8600 nM and 18 nM.
The like results for `OC[C@H]1O[C@H](Sc2cncc(Br)c2)[C@H](OCc2cncs2)[C@@H](n2cc(-c3cc(F)c(F)c(F)c3)nn2)[C@H]1O` [Example 22, 5-Bromopyridin-3-yl 3-deoxy-3-[4-(3,4,5-trifluorophenyl)-1H-1,2,3-triazol-1-yl]-2-O-[(thiazol-5-yl)methyl]-1-thio-α-D-galactopyranoside] were, in that order, 1900 nM and 21 nM.
The like results for `OC[C@H]1O[C@H](Sc2cncc(Br)c2)[C@H](OCc2nccs2)[C@@H](n2cc(-c3cc(F)c(F)c(F)c3)nn2)[C@H]1O` [Example 23, 5-Bromopyridin-3-yl 3-deoxy-3-[4-(3,4,5-trifluorophenyl)-1H-1,2,3-triazol-1-yl]-2-O-[(thiazol-2-yl)methyl]-1-thio-α-D-galactopyranoside] were, in that order, 2600 nM and 41 nM.
`CN(C)C(=O)c1ccc(Cl)cc1S[C@H]1OC(CO)[C@H](O)C(n2cc(-c3cc(F)c(F)c(F)c3)nn2)C1OCc1cscn1` (stereo partly drawn) [Example 24, 4-Chloro-N,N-dimethyl-benzamide-2-yl 3-deoxy-3-[4-(3,4,5-trifluorophenyl)-1H-1,2,3-triazol-1-yl]-2-O-[(thiazol-4-yl)methyl]-1-thio-α-D-galactopyranoside]: the Kd on Galectin-1 came to 3700 nM; on Galectin-3, 14 nM.
As to `CN(C)C(=O)c1ccc(Cl)cc1S[C@H]1OC(CO)[C@H](O)C(n2cc(-c3cc(F)c(F)c(F)c3)nn2)C1OCc1nnn[nH]1` (stereo partly drawn) [Example 25, 4-Chloro-N,N-dimethyl-benzamide-2-yl 3-deoxy-3-[4-(3,4,5-trifluorophenyl)-1H-1,2,3-triazol-1-yl]-2-O-[(1H-tetrazol-5-yl)methyl]-1-thio-α-D-galactopyranoside], the Kd is 1200 nM on Galectin-1 and 4 nM at Galectin-3.
The like results for `O=C(O)CCCO[C@@H]1[C@@H](n2cc(-c3cc(F)c(F)c(F)c3)nn2)[C@@H](O)[C@@H](CO)O[C@@H]1Sc1cncc(Br)c1` [Example 26, 5-Bromopyridin-3-yl 2-O-carboxypropyl-3-deoxy-3-[4-(3,4,5-trifluorophenyl)-1H-1,2,3-triazol-1-yl]-1-thio-α-D-galactopyranoside] were, in that order, 1500 nM and 10 nM.

These data come from US12497428B2, “Galactoside inhibitor of galectins” (GALECTO BIOTECH AB, priority 2018, dated 2025).
